Key:
[1] = system: peroxidized lipid in a homogenate of rat brain; assay: Suppression on production of peroxidized lipid in a homogenate of rat brain (thiobarbituric acid (TBA) method); type: biochemical, SD strain rats; conditions: final concentration 0.01 mM, 37° C., 30 minutes, % of vehicle control
Description: Suppression on production of peroxidized lipid in a homogenate of rat brain:
SD strain rats (body weight, about 200 g) were sacrificed by cutting down their heads, and the brains were taken out. The brains were homogenated with a 4-fold amount of 0.05M phosphate-sodium chloride buffer (pH 7.4) and centrifuged at 1000×g for 10 minutes. The supernatant was kept at -80° C. for storage.
The supernatant was diluted with a 2-fold amount of the same phosphate - sodium chloride buffer as above, and 0.48 ml of the dilution was combined with 30 μl of ethanol per se (vehicle) or ethanol solution containing a test compound (final concentration: 0.01 mM), followed by incubation at 37° C. for 30 minutes. The reaction was terminated by addition of 0.01% butylhydroxytoluene (BHT) in ethanol (20 μl) and 25% metaphosphoric acid (125 μl) and subjected to elimination of proteins. The peroxidized lipid in the supernatant was measured by the thiobarbituric acid (TBA) method according to the description in Ohkawa et al.: Anal. Biochem., vol. 95, page 351 (1979). The amount of peroxidized lipid produced was compared with that in the vehicle applied group and expressed in % control.

[2] = system: hydrochloric acid ethanol-induced gastric ulcer; assay: Effect against hydrochloric acid ethanol-induced gastric ulcer; type: in vivo, male JCD-SD rats; conditions: rat, oral, 30 minutes before hydrochloric acid-ethanol; from lesion index; dose not given
Description: Effect against hydrochloric acid ethanol-induced gastric ulcer.
To male JCD-SD rats (weight: 220-275 g) which have been fasted for 24 hours was administered orally 1 ml of 150 mM hydrochloric acid - 60% ethanol. After an hour, the stomachs were excised. The ulcer size as determined by measuring the length of each lesion under stereoscopic microscope and the sum of individual lesion length is expressed as lesion index. The vehicle (1% to 10% ethanol) and the test compounds were administered orally 30 minutes before the hydrochloric acid -ethanol administration. The percent suppression was calculated from the lesion indexes of treated versus untreated animals.

Structure (SMILES)	Peroxidized Lipid Produced (Expressed in % to Control) [1] [%]	Inhibitory Rate (Expressed in % to Control) [2] [%]
CC(C)(C)c1cc(SCCCCCc2nnn[nH]2)cc(C(C)(C)C)c1O [Ih, 5-[5-(3,5-Di-tert-butyl-4-hydroxy)phenylthiopentyl]tetrazole]	9.5	52.5 ± 16.6
CC(C)(C)c1cc(SCCc2nnn[nH]2)cc(C(C)(C)C)c1O [Ie, 5-[2-(3,5-Di-tert-butyl-4-hydroxy)phenylthioethyl]tetrazole]	8.1	37.2 ± 5.9
CC(C)(C)c1cc(SCCCCC#N)cc(C(C)(C)C)c1O [Ib, 5-(3,5-Di-tert-butyl-4-hydroxy)phenylthiopentanonitrile]	3.6	61.2 ± 18.4
CC(C)(C)c1cc(SCCCC#N)cc(C(C)(C)C)c1O [Ia, 4-(3,5-Di-tert-butyl-4-hydroxy)phenylthiobutylonitrile]	4.5	94.3 ± 14.8
CC(C)(C)c1cc(SCCCCCCC#N)cc(C(C)(C)C)c1O [Id, 7-(3,5-Di-tert-butyl-4-hydroxy)phenylthioheptanonitrile]	5.4	77.3 ± 16.8
CC(C)(C)c1cc(SCCCCCC#N)cc(C(C)(C)C)c1O [Ic, 6-(3,5-Di-tert-butyl-4-hydroxy)phenylthiohexanonitrile]	9.2	19.2 ± 8.4
CC(C)(C)c1cc(SCCCCc2nnn[nH]2)cc(C(C)(C)C)c1O [Ig, 5-[4-(3,5-Di-tert-butyl-4-hydroxy)phenylthiobutyl]tetrazole]	4.1	49.2 ± 13.0
CC(C)(C)c1cc(SCCCc2nnn[nH]2)cc(C(C)(C)C)c1O [If, 5-[3-(3,5-Di-tert-butyl-4-hydroxy)phenylthiopropyl]tetrazole]	5.7	52.1 ± 20.0
CC(C)(C)c1cc(SCCCCCC(N)=O)cc(C(C)(C)C)c1O [Ij, 6-(3,5-Di-tert-butyl-4-hydroxy)phenylthiohexanamide]	4.7	70.8 ± 8.5
CC(C)(C)c1cc(SCCCCCCc2nnn[nH]2)cc(C(C)(C)C)c1O [Ii, 5-[6-(3,5-Di-tert-butyl-4-hydroxy)phenylthiohexyl]tetrazole]	4.4	46.6 ± 13.4
CC(C)(Sc1cc(C(C)(C)C)c(O)c(C(C)(C)C)c1)Sc1cc(C(C)(C)C)c(O)c(C(C)(C)C)c1 [Probucol, reference compound]	58.3	75.4 ± 22.1

Reference: patent publication US4954514A, “(Di-tert-butylhydroxyphenyl)thio derivatives and antiarterioschlerosis compositions thereof” (Shionogi & Co, Ltd, priority 1989, dated 1990)
